± gives the standard deviation of the averaged measurements.
Columns and labels:
Details in all cases: 72 h
KCL-22 [1] = test: cell viability (% survival relative to DMSO control, bortezomib = 0%); higher = less cytotoxic
Summary of the method: (§1)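 In 384-well plates pre-printed with compounds at 1, 10, 100, 1000 or 10000 nM, duplicate wells received cells from 10 AML and 5 CML lines at densities within the linear growth range. The plates stayed at 37 °C with 5% CO2 for 72 h before CellTiter-Glo luminescence was recorded. Each entry is averaged percent survival. Scaling placed vehicle at 100% and a 10 µM positive control at 0%.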

K-562 [2] = test: as above
Summary of the method: as §1

THP-1 [3] = test: as above
Summary of the method: as §1

ML-2 [4] = test: as above
Summary of the method: as §1

KG-1 [5] = test: as above
Summary of the method: as §1

HL-60 [6] = test: as above
Summary of the method: as §1

SHI-1 [7] = test: as above
Summary of the method: as §1

HEL [8] = test: as above
Summary of the method: as §1

MOLM-13 [9] = test: as above
Summary of the method: as §1

NOMO-1 [10] = test: as above
Summary of the method: as §1

MV4-11 [11] = test: as above
Summary of the method: as §1

KU-812 [12] = test: as above
Summary of the method: as §1

KCL-22 [13] = tested on: KCL-22
Summary of the method: (§2)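 Each of fifteen myeloid leukaemia cell lines was seeded in RPMI 1640 at a density titrated to its linear growth range. The cells were incubated for 72 h at 37 °C and 5% CO2 with compounds at five tenfold doses from 1 to 10,000 nM, in duplicate. After ATP luminescence was normalised to vehicle and to a positive control at 10 µM, four-parameter log-logistic curves were fitted. These curves gave the IC50.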

K-562 [14] = tested on: K-562
Summary of the method: as §2

Mono-Mac-6 = tested on: Mono-Mac-6
Summary of the method: as §2

THP-1 [15] = tested on: THP-1
Summary of the method: as §2

ML-2 [16] = tested on: ML-2
Summary of the method: as §2

KG-1 [17] = tested on: KG-1
Summary of the method: as §2

HL-60 [18] = tested on: HL-60
Summary of the method: as §2

BV-173 = tested on: BV-173
Summary of the method: as §2

SHI-1 [19] = tested on: SHI-1
Summary of the method: as §2

LAMA-84 = tested on: LAMA-84
Summary of the method: as §2

HEL [20] = tested on: HEL
Summary of the method: as §2

MOLM-13 [21] = tested on: MOLM-13
Summary of the method: as §2

NOMO-1 [22] = tested on: NOMO-1
Summary of the method: as §2

MV4-11 [23] = tested on: MV4-11
Summary of the method: as §2

KU-812 [24] = tested on: KU-812
Summary of the method: as §2

HL-60 [25] = test: cell viability (% survival relative to DMSO control); higher = less cytotoxic
Summary of the method: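 In 384-well plates, the full library was rescreened in duplicate on HL-60 cells in RPMI 1640 with 10% FBS, at 1–10,000 nM in five tenfold concentrations, for 72 h at 37 °C, 5% CO2. Each run also held DMSO or 100 nM of one of three metabolic inhibitors. Viability was measured by CellTiter-Glo and normalised to DMSO wells and to wells with proteasome inhibitor, present at 10 μM. Any area under the curve comes from four-parameter log-logistic fitting with drc and PharmacoGx.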

CC(C)(C)c1ccc(S(=O)(=O)NCc2ccc(C(=O)Nc3cccnc3)cc2)cc1 [STF-31]
cell viability [%]
Details	1 nM	10 nM	100 nM	1000 nM	10000 nM
HEL [8]	107	119	35.3	3.71	2.64
HL-60 [6]	102	169	65.7	-0.0172	0.631
K-562 [2]	109	103	82.2	11.9	3.63
KCL-22 [1]	85	80	98.4	9.33	1.6
KG-1 [5]	147	137	72.6	19.7	18.4
KU-812 [12]	91.8	107	58.6	14.2	7.98
ML-2 [4]	95.8	101	83.5	3.23	0.455
MOLM-13 [9]	111	154	96.6	109	0.127
MV4-11 [11]	98	139	3.11	0.253	0.177
NOMO-1 [10]	102	95.7	40.1	6.08	0.284
SHI-1 [7]	89.7	118	108	101	57.4
THP-1 [3]	101	95.9	101	103	110

Details	IC50 (cell viability) [nM]
BV-173	38.3
HEL [20]	73.8
HL-60 [18]	143
K-562 [14]	242
KCL-22 [13]	437
KG-1 [17]	144
KU-812 [24]	109
LAMA-84	169
ML-2 [16]	228
MOLM-13 [21]	3570
MV4-11 [23]	45.1
Mono-Mac-6	548
NOMO-1 [22]	74
SHI-1 [19]	> 10000
THP-1 [15]	> 10000

cell viability [%], HL-60 [25]
Details	0.001 µM	0.01 µM	0.1 µM	1 µM	10 µM
co-treatment: AZD3965 100 nM	104 ± 5.3	95.82 ± 0.71	94.3 ± 5.3	20.9 ± 0.83	2.06 ± 0.56
co-treatment: DMSO vehicle	104 ± 1.7	94.1 ± 1.3	108 ± 3.8	10.1 ± 3.2	4.63 ± 2.2
co-treatment: GSK2194069 100 nM	101 ± 1.4	98.62 ± 0.24	99.7 ± 7	6.72 ± 0.56	2.51 ± 0.88
co-treatment: pictilisib 100 nM	100 ± 2.9	93.2 ± 6.9	105 ± 26	18 ± 18	3.08 ± 1

N[C@@H](CC(=O)N1CCn2c(nnc2C(F)(F)F)C1)Cc1cc(F)c(F)cc1F [Sitagliptin]
cell viability [%]
Details	1 nM	10 nM	100 nM	1000 nM	10000 nM
HEL [8]	90.7	95.3	111	95.4	103
HL-60 [6]	101	95.5	97.1	91.3	95.2
K-562 [2]	93.8	96.9	103	99.7	113
KCL-22 [1]	94	114	106	94.4	92.8
KG-1 [5]	90.9	104	108	95.2	103
KU-812 [12]	94.6	98.9	91.9	95.5	102
ML-2 [4]	90	102	99.3	97.4	97.9
MOLM-13 [9]	95.5	110	92.5	84.3	95.4
MV4-11 [11]	89.2	102	99.3	92.2	101
NOMO-1 [10]	99.8	96.9	91.3	101	100
SHI-1 [7]	95.2	104	105	96.8	97.4
THP-1 [3]	97.8	99.7	106	99	97.6

Details	IC50 (cell viability) [nM]
BV-173	> 10000
HEL [20]	> 10000
HL-60 [18]	> 10000
K-562 [14]	> 10000
KCL-22 [13]	> 10000
KG-1 [17]	> 10000
KU-812 [24]	> 10000
LAMA-84	> 10000
ML-2 [16]	> 10000
MOLM-13 [21]	> 10000
MV4-11 [23]	> 10000
Mono-Mac-6	> 10000
NOMO-1 [22]	> 10000
SHI-1 [19]	> 10000
THP-1 [15]	> 10000

cell viability [%], HL-60 [25]
Details	0.001 µM	0.01 µM	0.1 µM	1 µM	10 µM
co-treatment: AZD3965 100 nM	103 ± 1.8	108 ± 6.3	103 ± 1.1	103 ± 1.9	109 ± 19
co-treatment: DMSO vehicle	97.61 ± 0.86	102 ± 1.8	100 ± 1.7	101 ± 1.9	101 ± 2
co-treatment: GSK2194069 100 nM	97.9 ± 1.7	104 ± 5.4	99.4 ± 5.9	107 ± 4.7	97.9 ± 3.2
co-treatment: pictilisib 100 nM	82.9 ± 14	104 ± 7.1	99.5 ± 6.1	114 ± 13	94.2 ± 17

— the supplement of paper PMC8671470
